From patent US20220202905A1, “COMPOSITION FOR PREVENTING OR TREATING NEUROTROPHIC KERATITIS WHICH CONTAINS PACAP PEPTIDE OR STABILIZED PACAP PEPTIDE” (SENJU PHARMACEUTICAL CO., LTD., priority 2019, published 2022)
Square brackets hold non-standard residues; d marks the D form. Peptide text beside a SMILES is read from it. Ala(1H-tetrazol-5-yl) = N[C@@H](Cc1nnn[nH]1)C(=O)O; Nle = CCCC[C@H](N)C(=O)O

Test: Peptide stability test, Tris buffer (pH 7.0), 60° C. storage, HPLC remaining rate
Format: physicochemical
Conditions: for remaining rate after correction for water, 60° C., 1 week preservation / remaining rate after correction for water, 60° C., 2 weeks preservation: 100 μM in Tris buffer pH 7.0
Method: Peptides 1, 2 and 6 to 9 synthesized in Example 2 were weighed and dissolved in Tris buffer (pH 7.0) to prepare 1.0 mM peptide solutions. Each solution was filtered with a Chromatdisk (product of Merck Millipore, Millex-GV, 0.22 μm). The filtrate was diluted to 100 μM with Tris buffer (pH 7.0) and dispensed into a tube (Protein LoBind Tube by Eppendorf Co.). The prepared peptide solutions were incubated for 1 week or 2 weeks in a 60° C. thermostatic bath to obtain stored samples. A simultaneously prepared sample among the peptide solutions that was not stored was used as a standard sample (initial sample). The standard sample and the stored samples were stored at −30° C. until sample analysis. Each stored sample was measured under the following HPLC analysis conditions 2, and the remaining rate after correction for water for each peptide among the stored samples was calculated in the same manner as Example 3. Guard column: XSelect CSH C18 by Waters Co., 5 μm, 4.6×20 mm Guard Cartridge Detection wavelength: 220 nm Mobile phase A: 0.1% formic acid aqueous solution Mobile phase B: 0.1% acetonitrile formate solution Measuring time: 20 minutes Measuring sample injection rate: 50 μL Flow rate: 1.0 mL/min Column temperature: 40° C. Sample cooler: 25° C. Mobile phase delivery: The mixing ratio of mobile phase A and mobile phase B was varied as shown in Table 5 for linear concentration gradient control. Peptides 12 to 25, 27 and 28 synthesized in Example 2 were weighed and dissolved in Tris buffer (pH 7.0) to prepare 1.0 mM peptide solutions. Each solution was filtered with a Chromatdisk (product of Merck Millipore, Millex-GV, 0.22 μm). The filtrate was diluted to 100 μM with Tris buffer (pH 7.0) and dispensed into a tube (Protein LoBind Tube by Eppendorf Co.). The prepared peptide solutions were incubated for one week or 2 weeks in a 60° C. thermostatic bath to obtain stored samples. A simultaneously prepared sample among the peptide solutions that was not stored was used as a standard sample (initial sample). The standard sample and the stored samples were stored at −30° C. until sample analysis. The remaining rate after correction for water for each peptide among the stored samples was calculated in the same manner as Example 4, and the results are shown in Table 7. Peptides 29 to 34 synthesized in Example 2 were weighed and dissolved in Tris buffer (pH 7.0) to prepare 1.0 mM peptide solutions. Each solution was filtered with a Chromatdisk (product of Merck Millipore, Millex-GV, 0.22 μm). The filtrate was diluted to 100 μM with Tris buffer (pH 7.0) and dispensed into a tube (Protein LoBind Tube by Eppendorf Co.). The prepared peptide solutions were incubated for 2 weeks in a 60° C. thermostatic bath to obtain stored samples. A simultaneously prepared sample among the peptide solutions that was not stored was used as a standard sample (initial sample). The standard sample and the stored samples were stored at −30° C. until sample analysis. The remaining rate after correction for water for each peptide among the stored samples was calculated in the same manner as Example 4, and the results are shown in Table 7-2. Peptide 26 synthesized in Example 2 was weighed and dissolved in Tris buffer (pH 7.0) to prepare a 1.0 mM peptide solution. The solution was filtered with a Chromatdisk (product of Merck Millipore, Millex-GV, 0.22 μm). The filtrate was diluted to 100 μM with Tris buffer (pH 7.0) and dispensed into a tube (Protein LoBind Tube by Eppendorf Co.). The prepared peptide solution was incubated for one week or 2 weeks in a 60° C. thermostatic bath to obtain stored samples. A simultaneously prepared sample among the peptide solutions that was not stored was used as a standard sample (initial sample). The standard sample and the stored sample were stored at −30° C. until sample analysis. […]

For `CC[C@H](C)[C@H](NC(=O)CNC(=O)[C@H](Cc1nnn[nH]1)NC(=O)[C@H](CO)NC(=O)[C@@H](N)Cc1c[nH]cn1)C(=O)N[C@@H](Cc1ccccc1)C(=O)N[C@H](C(=O)N[C@@H](Cc1nnn[nH]1)C(=O)N[C@@H](CO)C(=O)N[C@@H](Cc1ccc(O)cc1)C(=O)N[C@@H](CO)C(=O)N[C@@H](CCCNC(=N)N)C(=O)N[C@@H](Cc1ccc(O)cc1)C(=O)N[C@@H](CCCNC(=N)N)C(=O)N[C@@H](CCCCN)C(=O)N[C@@H](CCC(N)=O)C(=O)N[C@@H](CC(C)C)C(=O)N[C@@H](C)C(=O)N[C@H](C(=O)N[C@@H](CCCCN)C(=O)N[C@@H](CCCCN)C(=O)N[C@@H](Cc1ccc(O)cc1)C(=O)N[C@@H](CC(C)C)C(=O)N[C@@H](C)C(=O)N[C@@H](C)C(=O)N[C@H](C(=O)N[C@@H](CC(C)C)C(N)=O)C(C)C)C(C)C)[C@@H](C)O` [Peptide 7] (H-HS[Ala(1H-tetrazol-5-yl)]GIFT[Ala(1H-tetrazol-5-yl)]SYSRYRKQLAVKKYLAAVL-NH2), the “remaining rate after correction for water, 60° C., 1 week preservation” value (from here on “remaining rate … 1 week preservation”) (Table 6, HPLC conditions 2) was 91.7% and the “remaining rate after correction for water, 60° C., 2 weeks preservation” value (“remaining rate … 2 weeks preservation” below) (Table 6, HPLC conditions 2) was 84.8%.

With `CCCC[C@H](NC(=O)[C@H](CCC(N)=O)NC(=O)[C@H](CCCCN)NC(=O)[C@H](CCCNC(=N)N)NC(=O)[C@H](Cc1ccc(O)cc1)NC(=O)[C@H](CCCNC(=N)N)NC(=O)[C@H](CO)NC(=O)[C@H](Cc1ccc(O)cc1)NC(=O)[C@H](CO)NC(=O)[C@H](Cc1nnn[nH]1)NC(=O)[C@@H](NC(=O)[C@H](Cc1ccccc1)NC(=O)[C@@H](NC(=O)CNC(=O)[C@H](Cc1nnn[nH]1)NC(=O)[C@H](CO)NC(=O)[C@H](Cc1c[nH]cn1)NC(C)=O)[C@@H](C)CC)[C@@H](C)O)C(=O)N[C@@H](C)C(=O)N[C@H](C(=O)N[C@@H](CCCCN)C(=O)N[C@@H](CCCCN)C(=O)N[C@@H](Cc1ccc(O)cc1)C(=O)N[C@@H](CC(C)C)C(=O)N[C@@H](C)C(=O)N[C@@H](C)C(=O)N[C@H](C(=O)N[C@@H](CC(C)C)C(N)=O)C(C)C)C(C)C` [Peptide 8] (Ac-HS[Ala(1H-tetrazol-5-yl)]GIFT[Ala(1H-tetrazol-5-yl)]SYSRYRKQ[Nle]AVKKYLAAVL-NH2) the “expected remaining rate for 2 years at room temperature” value (buffer, 336 h) was at least 90%.

With `CC[C@H](C)[C@H](NC(=O)CNC(=O)[C@H](Cc1nnn[nH]1)NC(=O)[C@H](C)NC(=O)[C@H](Cc1c[nH]cn1)NC(C)=O)C(=O)N[C@@H](Cc1ccccc1)C(=O)N[C@H](C(=O)N[C@@H](Cc1nnn[nH]1)C(=O)N[C@@H](CO)C(=O)N[C@@H](Cc1ccc(O)cc1)C(=O)N[C@@H](CO)C(=O)N[C@@H](CCCNC(=N)N)C(=O)N[C@@H](Cc1ccc(O)cc1)C(=O)N[C@@H](CCCNC(=N)N)C(=O)N[C@@H](CCCCN)C(=O)N[C@@H](CCC(N)=O)C(=O)N[C@@H](CC(C)C)C(=O)N[C@@H](C)C(=O)N[C@H](C(=O)N[C@@H](CCCCN)C(=O)N[C@@H](CCCCN)C(=O)N[C@@H](Cc1ccc(O)cc1)C(=O)N[C@@H](CC(C)C)C(=O)N[C@@H](C)C(=O)N[C@@H](C)C(=O)N[C@H](C(=O)N[C@@H](CC(C)C)C(N)=O)C(C)C)C(C)C)[C@@H](C)O` [Peptide 14] (Ac-HA[Ala(1H-tetrazol-5-yl)]GIFT[Ala(1H-tetrazol-5-yl)]SYSRYRKQLAVKKYLAAVL-NH2) the “remaining rate … 1 week preservation” value (Table 7) was 96.7% and the “remaining rate … 2 weeks preservation” value (Table 7) was 94.5%.

For `CC[C@H](C)[C@H](NC(=O)CNC(=O)[C@H](Cc1nnn[nH]1)NC(=O)[C@H](CO)NC(=O)[C@H](Cc1c[nH]cn1)NC(C)=O)C(=O)N[C@@H](Cc1ccccc1)C(=O)N[C@H](C(=O)N[C@@H](Cc1nnn[nH]1)C(=O)N[C@@H](CO)C(=O)N[C@@H](Cc1ccc(O)cc1)C(=O)N[C@@H](C)C(=O)N[C@@H](CCCNC(=N)N)C(=O)N[C@@H](Cc1ccc(O)cc1)C(=O)N[C@@H](CCCNC(=N)N)C(=O)N[C@@H](CCCCN)C(=O)N[C@@H](CCC(N)=O)C(=O)N[C@@H](CC(C)C)C(=O)N[C@@H](C)C(=O)N[C@H](C(=O)N[C@@H](CCCCN)C(=O)N[C@@H](CCCCN)C(=O)N[C@@H](Cc1ccc(O)cc1)C(=O)N[C@@H](CC(C)C)C(=O)N[C@@H](C)C(=O)N[C@@H](C)C(=O)N[C@H](C(=O)N[C@@H](CC(C)C)C(N)=O)C(C)C)C(C)C)[C@@H](C)O` [Peptide 16] (Ac-HS[Ala(1H-tetrazol-5-yl)]GIFT[Ala(1H-tetrazol-5-yl)]SYARYRKQLAVKKYLAAVL-NH2), the “remaining rate … 1 week preservation” value (Table 7) was 98.1% and the “remaining rate … 2 weeks preservation” value (Table 7) was 93.5%.

For `CC[C@H](C)[C@H](NC(=O)CNC(=O)[C@H](Cc1nnn[nH]1)NC(=O)[C@H](CO)NC(=O)[C@H](Cc1c[nH]cn1)NC(C)=O)C(=O)N[C@@H](Cc1ccccc1)C(=O)N[C@H](C(=O)N[C@@H](Cc1nnn[nH]1)C(=O)N[C@@H](CO)C(=O)N[C@@H](Cc1ccc(O)cc1)C(=O)N[C@@H](CO)C(=O)N[C@@H](CCCNC(=N)N)C(=O)N[C@@H](Cc1ccc(O)cc1)C(=O)N[C@@H](CCCNC(=N)N)C(=O)N[C@@H](CCCCN)C(=O)N[C@@H](C)C(=O)N[C@@H](CC(C)C)C(=O)N[C@@H](C)C(=O)N[C@H](C(=O)N[C@@H](CCCCN)C(=O)N[C@@H](CCCCN)C(=O)N[C@@H](Cc1ccc(O)cc1)C(=O)N[C@@H](CC(C)C)C(=O)N[C@@H](C)C(=O)N[C@@H](C)C(=O)N[C@H](C(=O)N[C@@H](CC(C)C)C(N)=O)C(C)C)C(C)C)[C@@H](C)O` [Peptide 17] (Ac-HS[Ala(1H-tetrazol-5-yl)]GIFT[Ala(1H-tetrazol-5-yl)]SYSRYRKALAVKKYLAAVL-NH2), the “remaining rate … 1 week preservation” value (Table 7) was 97.8% and the “remaining rate … 2 weeks preservation” value (Table 7) was 93.4%.

With `CC[C@H](C)[C@H](NC(=O)CNC(=O)[C@H](Cc1nnn[nH]1)NC(=O)[C@H](CO)NC(=O)[C@H](Cc1c[nH]cn1)NC(C)=O)C(=O)N[C@@H](Cc1ccccc1)C(=O)N[C@H](C(=O)N[C@@H](Cc1nnn[nH]1)C(=O)N[C@@H](CO)C(=O)N[C@@H](Cc1ccc(O)cc1)C(=O)N[C@@H](CO)C(=O)N[C@@H](CCCNC(=N)N)C(=O)N[C@@H](Cc1ccc(O)cc1)C(=O)N[C@@H](CCCNC(=N)N)C(=O)N[C@@H](CCCCN)C(=O)N[C@@H](CCC(N)=O)C(=O)N[C@@H](CC(C)C)C(=O)N[C@@H](C)C(=O)N[C@H](C(=O)N[C@@H](CCCCN)C(=O)N[C@@H](CCCCN)C(=O)N[C@@H](Cc1ccc(O)cc1)C(=O)N[C@@H](CC(C)C)C(=O)N[C@@H](C)C(=O)N[C@@H](C)C(=O)N[C@H](C(=O)N[C@@H](C)C(N)=O)C(C)C)C(C)C)[C@@H](C)O` [Peptide 20] (Ac-HS[Ala(1H-tetrazol-5-yl)]GIFT[Ala(1H-tetrazol-5-yl)]SYSRYRKQLAVKKYLAAVA-NH2) the “remaining rate … 1 week preservation” value (Table 7) was 93.9% and the “remaining rate … 2 weeks preservation” value (Table 7) was 91.8%.

For `CC[C@H](C)[C@H](NC(=O)CNC(=O)[C@H](Cc1nnn[nH]1)NC(=O)[C@H](CO)NC(=O)[C@H](Cc1c[nH]cn1)NC(C)=O)C(=O)N[C@@H](Cc1ccccc1)C(=O)N[C@H](C(=O)N[C@@H](Cc1nnn[nH]1)C(=O)N[C@@H](CO)C(=O)N[C@@H](Cc1ccc(O)cc1)C(=O)N[C@@H](CO)C(=O)N[C@@H](CCCNC(=N)N)C(=O)N[C@@H](Cc1ccc(O)cc1)C(=O)N[C@@H](CCCNC(=N)N)C(=O)N[C@@H](CCCNC(=N)N)C(=O)N[C@@H](CCC(N)=O)C(=O)N[C@@H](CC(C)C)C(=O)N[C@@H](C)C(=O)N[C@H](C(=O)N[C@@H](CCCNC(=N)N)C(=O)N[C@@H](CCCNC(=N)N)C(=O)N[C@@H](Cc1ccc(O)cc1)C(=O)N[C@@H](CC(C)C)C(=O)N[C@@H](C)C(=O)N[C@@H](C)C(=O)N[C@H](C(=O)N[C@@H](CC(C)C)C(N)=O)C(C)C)C(C)C)[C@@H](C)O` [Peptide 21] (Ac-HS[Ala(1H-tetrazol-5-yl)]GIFT[Ala(1H-tetrazol-5-yl)]SYSRYRRQLAVRRYLAAVL-NH2), the “remaining rate … 1 week preservation” value (Table 7) was 97.8% and the “remaining rate … 2 weeks preservation” value (Table 7) was 93.5%.
